We go through 87 compounds from ChEMBL document CHEMBL1157539, “Thousands of chemical starting points for antimalarial lead identification” (Nature, 2010).

The subject of this assay is Plasmodium falciparum. The assay is described as follows: GSK_TCMDC: Inhibition of Plasmodium falciparum 3D7 in whole erythrocytes, using parasite LDH activity as an index of growth. The following applies: Plasmodium falciparum, 3D7. In kind it is functional, organism-based.

With `O=C(NCCCCN1CC=C(c2ccc3c(c2OCC2CC2)CCCC3)CC1)c1ccc(-c2ccc(C(F)(F)F)cc2)cc1`, the XC50 was 540 nM.

`NC1CCN(c2nc(NCCCc3ccc(O)cc3)nc(NCc3cccc4ccccc34)n2)CC1` yielded an XC50 of 724 nM.

The compound `Cc1nc(N)nc(N)c1CCCOc1ccc(Br)cc1` had an XC50 of 485 nM.

For `c1ccc2[nH]c(-c3ccc(-c4ccc(CN5CCCCC5)cc4)cc3)nc2c1`, the XC50 came to 750 nM.

Compound `CSc1ccc(NC(=O)Nc2cc(C)nc3ccccc23)cc1Br` had an XC50 of 778 nM.

For the compound `O=C(Nc1ccc(Cl)cc1)Nc1cccc(-c2cccc(-c3nc4cc(F)ccc4[nH]3)c2)c1`, the XC50 is 220 nM.

Consider `CC(C)c1ccc(CN2CCC(CNC(=O)c3cc(-c4ccccc4F)cs3)C2)cc1` (configuration not stated), for which the XC50 was determined as 993 nM.

Compound `COc1ccc(-c2onc(C(F)(F)F)c2-c2ccc(Br)cc2)c(O)c1` yielded an XC50 of 237 nM.

`COc1ccc(Nc2nccc(-c3ccc(NC(=O)c4cc5cc(F)ccc5[nH]4)cc3)n2)cc1` had an XC50 of 630 nM.

Compound `CN1CCC(c2nc(N)no2)C1` (configuration not stated) yielded an XC50 of 975 nM.

The compound `CCOc1cc(C(=O)NC2CCN(Cc3ccccc3)C2)ccc1-c1nc2cc(Cl)ccc2[nH]1` (configuration not stated) showed an XC50 of 1010 nM.

The compound `CCCc1cc(=O)[nH]c(-n2nc(C)cc2NC(=O)CC(c2ccccc2)c2ccccc2)n1` showed an XC50 of 618 nM.

In turn, `CC1(C)CNCc2cc(NC(=O)/C=C/c3ccc(Cl)cc3)ccc21` came in with an XC50 of 1180 nM.

Compound `Cc1cc(N(C)C)nc(Nc2ccc(NC(=O)CCc3ccccc3)cc2)n1` showed an XC50 of 850 nM.

Consider `O=C(NCC1CCN(Cc2cccc(C(F)(F)F)c2)C1)c1cc(-c2cccc(F)c2)cs1` (configuration not stated), for which the XC50 came out at 1180 nM.

On to `O=C(/C=C/c1ccc(Cl)c(Cl)c1)NCCCCCN1CCC(NC(=O)Nc2cc(Cl)nc(Cl)c2)CC1`, for which the XC50 was found to be 976 nM.

In the case of `Cc1cc(N/N=C/c2ccccc2[N+](=O)[O-])c2cc(F)ccc2n1`, the XC50 is 665 nM.

Consider `COc1ccccc1Cn1ccnc1SCC(=O)Nc1cc(C(F)(F)F)ccc1Cl`, for which the XC50 came out at 99.9 nM.

Turning to `Cc1cccn2c(=O)c3cc(C(=O)NC(C)c4ccccc4)c(=N)n(CCN4CCOCC4)c3nc12` (configuration not stated), the XC50 amounted to 823 nM.

In the case of `Oc1ccc(CCNc2nc(NCCCOc3cccc(CN4CCCCC4)c3Cl)nc(N3CCNCC3)n2)cc1`, the XC50 is 1370 nM.

Turning to `OC(CNC1CCCCC1)Cn1c2ccccc2c2ccccc21` (configuration not stated), the XC50 amounted to 991 nM.

Compound `NC(=O)c1cccc(Nc2nccc(Nc3ccc(Oc4ccc5ccccc5c4)cc3)n2)c1` displayed an XC50 of 810 nM.

Compound `O=C(/C=C/c1ccc(Cl)c(Cl)c1)NCCCCCCN1CCCN(C(=O)Nc2cccc(Cl)c2)CC1` had an XC50 of 855 nM.

Compound `COc1cc(OC)cc(-c2nn(-c3ccc([N+](=O)[O-])cc3C#N)c(=S)n2Cc2ccco2)c1` displayed an XC50 of 577 nM.

Compound `O=C(Nc1cccc(CN2CCCN(Cc3ccc(F)cc3)CC2)c1)c1ccc(Cl)c(Cl)c1` had an XC50 of 958 nM.

In the case of `CS(=O)(=O)c1ccc2nc(NC(=O)c3csnn3)sc2c1`, the XC50 was 666 nM.

Consider `CCNc1cc(C(=O)N[C@@H](Cc2ccccc2)[C@H](O)CNCc2cc(OC)cc(OC)c2)cc(N2CCCC2=O)c1`, for which the XC50 was determined as 736 nM.

Consider `COc1cc2c(cc1OC)-c1cc(=Nc3c(C)cc(C)cc3C)n(C)c(=O)n1CC2`, for which the XC50 stood at 1110 nM.

As to `CN1CCC(NC(=O)c2cccc(Nc3cc(Nc4cccc(Br)c4)ncn3)c2)CC1`, the XC50 stood at 1010 nM.

The compound `Cc1ccc2[nH]c(C)cc(=NN=Cc3ccccc3F)c2c1` gave an XC50 of 171 nM.

`NCCNc1ccc([N+](=O)[O-])cc1C(=O)Nc1cccc(C(F)(F)F)c1` displayed an XC50 of 905 nM.

As to `Cc1cc(C(=O)NC2CCN(CC3(c4ccccc4)CCCCC3)CC2)on1`, the XC50 stood at 258 nM.

Compound `COc1ccc(Nc2nccc(N3CCC(NC(=O)Nc4ccc5c(c4)OCO5)C3)n2)cc1` (configuration not stated) displayed an XC50 of 599 nM.

`O=S(=O)(NC1CCCCN(Cc2ccccc2O)C1)c1ccc(C(F)(F)F)cc1` (configuration not stated): the XC50 turned out to be 1300 nM.

Consider `CN1CC=C(c2c[nH]c3ccc(-c4ccccc4)cc23)CC1`, for which the XC50 was found to be 775 nM.

Regarding `Cc1cc(C)cc(NC(=S)NCCCCN2CCN(c3cccc(Cl)c3)CC2)c1`, the XC50 amounted to 1350 nM.

On to `CS(=O)(=O)NCCCNCc1cccc(-c2ccc(-c3nc4cc(C(F)(F)F)ccc4[nH]3)s2)c1`, for which the XC50 amounted to 880 nM.

For `CC(C)COc1ccc2ccccc2c1CNCCCCCCNCc1c(OCC(C)C)ccc2ccccc12`, the XC50 stood at 695 nM.

Take `CN(C)CCC(O)C=C(c1ccc(Cl)cc1)c1ccc(Cl)cc1` (configuration not stated): the XC50 is 948 nM.

As to `FC(F)(F)c1ccc(CSc2ccc3nnc(-c4ccccn4)n3n2)cc1`, the XC50 came out at 817 nM.

In the case of `COc1ccc(OC)c(-c2cccc(-c3cccc(NC(=O)c4ccc([N+](=O)[O-])o4)c3)n2)c1`, the XC50 was found to be 371 nM.

The compound `Nc1ncnc2nc(-c3ccc(F)cc3)cc(-c3ccc(NC(=O)c4ccccc4)cc3)c12` showed an XC50 of 640 nM.

`CCOc1cc(NCCSCc2nc[nH]c2C)nc2ccccc12` showed an XC50 of 792 nM.

In turn, `Cc1cc2[nH]c(-c3ccc(C(=O)NCCCN4CCN(c5cccc(Cl)c5)CC4)cc3F)nc2cc1Cl` yielded an XC50 of 479 nM.

For the compound `COc1ccc(C=CC(=O)NC(=O)c2ccccc2OC(=O)c2ccccc2)cc1OC`, the XC50 was determined as 910 nM.

Consider `O=C(NC(c1ccc(Cl)cc1)c1ccc2cccnc2c1O)c1ccccc1` (configuration not stated), for which the XC50 is 558 nM.

`CC(Cc1ccc(OCCCCOc2ccccc2)cc1)NCCc1ccccc1Cl` (configuration not stated) yielded an XC50 of 175 nM.

Consider `COc1ccc(C(=O)C2CC2CN2CC=C(c3c[nH]c4ccccc34)CC2)cc1` (configuration not stated), for which the XC50 was determined as 532 nM.

Turning to `CCc1nc(N)nc(N)c1-c1cccc(Cl)c1`, the XC50 was determined as 193 nM.

Compound `COc1cc(C(=O)Nc2cccc(-c3cn4cccc(C)c4n3)c2)cc(OC)c1OC` registered an XC50 of 697 nM.

As to `CCc1cc(Cc2cnc(N)nc2N)cc(CC)c1OC`, the XC50 amounted to 1130 nM.

On to `Cc1cc(OCC2CCCN(c3ncc(C(=O)NC4CC4)cc3Cl)C2)ccc1F` (configuration not stated), for which the XC50 was determined as 1490 nM.

Compound `COc1ccc2nccc(NC(=O)C3(O)CCC(NCc4ccc5c(c4)NCCS5)CC3)c2n1` (configuration not stated) came in with an XC50 of 598 nM.

`CCc1ccc(NC(=O)c2cccc(CN3CCCN(Cc4ccc(OC)cc4)CC3)c2)cc1`: the XC50 amounted to 919 nM.

In the case of `CO/C(=C\C=C\c1cc2cc(Cl)c(Cl)cc2[nH]1)C(=O)NCCN1CCCCC1`, the XC50 was 1400 nM.

Take `NC(=O)C1CCN(Cc2ccc(-c3ccc(-c4nc5cc(C(F)(F)F)ccc5[nH]4)s3)cc2)CC1`: the XC50 came out at 540 nM.

Compound `O=C(Nc1cccc(CN2CCCN(Cc3cccc(Cl)c3)CC2)c1)c1ccc(-c2ccccc2)cc1` had an XC50 of 1230 nM.

Compound `CCOc1ccc2c(=NN=Cc3ccccn3)cc(C)[nH]c2c1` gave an XC50 of 862 nM.

`COCC(=O)N(Cc1cccc(-c2ccc(CNCCc3ccccc3)cc2)c1)C1CCN(Cc2ccccc2)CC1` displayed an XC50 of 1100 nM.

For `O=C(/C=C/c1ccc(Cl)c(Cl)c1)NC1CCC(CN2CCC(c3c[nH]c4ccncc34)CC2)CC1` (configuration not stated), the XC50 is 398 nM.

Regarding `CC[C@H]1CN2CC[C@@H]1C[C@H]2[C@H](O)c1cc(-c2c(C)noc2C)nc2ccc(OC)cc12`, the XC50 is 33 nM.

Consider `Cc1cccn2c(=O)c3cc(C(=O)NCCc4ccccc4)c(=N)n(CCCOC(C)C)c3nc12`, for which the XC50 was 481 nM.

In the case of `CCCCCCCNCCNc1cc(C)nc2ccccc12`, the XC50 was determined as 386 nM.

In the case of `OC[C@H]1CCCN1CC#Cc1cc2c(Nc3ccc(OCc4cccc(F)c4)c(Cl)c3)ncnc2s1`, the XC50 is 1210 nM.

In turn, `CC(C)N(CCOc1ccc2c(c1)N(C(=O)Nc1cc(Br)cc(C(F)(F)F)c1)CC2)C(C)C` registered an XC50 of 108 nM.

In turn, `Cc1cc(N[C@@H](Cc2ccccc2)C(=O)NCCOc2ccccc2)nc(NCCc2ccc(F)cc2)n1` registered an XC50 of 603 nM.

Compound `CCn1ccc2c(N3CCCS3(=O)=O)cc(C(=O)N[C@@H](Cc3ccccc3)[C@H](O)CNC3CCCCC3)cc21` registered an XC50 of 137 nM.

Take `COc1ccc2nccc([C@@H](O)CN3CCC(NC(=O)/C=C/c4cccc(-c5ccccc5)c4)CC3)c2c1`: the XC50 stood at 248 nM.

With `O=C(Nc1ccsc1)Nc1cccc(-c2ccc(-c3nc4cc(C(F)(F)F)ccc4[nH]3)cc2)c1`, the XC50 worked out at 351 nM.

`Cc1ccc(CCC(C)NCC(O)c2cccc(Cl)c2)cc1` (configuration not stated): the XC50 is 804 nM.

Compound `NCCCNc1ccc(-c2ccc(NC(=O)Nc3cc(C(F)(F)F)ccc3F)cc2)cn1` returned an XC50 of 837 nM.

`COc1cc2c(cc1OC)CN(CCCCc1ccc(NC(=O)c3cc(Cl)cc(Cl)c3)cc1)CC2` came in with an XC50 of 1200 nM.

The compound `CCOC(=O)c1ccc(NC(=O)NCCCC2CCCN(CCCCCNC(=O)/C=C/c3ccc(Cl)c(Cl)c3)C2)cc1` (configuration not stated) showed an XC50 of 855 nM.

Take `CN1CCN(CC(=O)Nc2ccc(-c3ccc(-c4nc5ccccc5[nH]4)cc3)cc2)CC1`: the XC50 worked out at 696 nM.

In turn, `CCNc1cc(C(=O)N[C@@H](Cc2ccccc2Cl)[C@H](O)CNC(C)CCCC(C)C)cc(N2CCCCS2(=O)=O)c1` (some centres not stated) displayed an XC50 of 928 nM.

Take `Oc1ccc2ncnc(Nc3ccc(OCc4cccc(F)c4)c(Cl)c3)c2c1`: the XC50 stood at 993 nM.

The compound `CC1(C)CC2CC(C)(CN2C(=O)c2cc(C(C)(C)C)nn2Cc2ccccc2)C1` (configuration not stated) yielded an XC50 of 1090 nM.

Turning to `CCCCCCNc1cc(C)nc2ccc(OC)cc12`, the XC50 worked out at 552 nM.

The compound `CC(C)C[C@H]1C(=O)N[C@H](C2Cc3ccccc3C2)C(=O)N1[C@@H](C(=O)Nc1ccccc1OCc1ccccc1)c1ccc(F)cc1F` displayed an XC50 of 1020 nM.

Take `CCN(CC)CCN(Cc1ccc(-c2ccc(C(F)(F)F)cc2)cc1)C(=O)Cn1c(SCc2ccc(F)cc2)nc(=O)c2ccccc21`: the XC50 is 773 nM.

For `O=C(NCC1CCC(CNCCCc2ccccc2)CC1)Nc1ccc(Cl)c(Cl)c1` (configuration not stated), the XC50 turned out to be 767 nM.

On to `C=CCOC(=O)N1CCC(CNCc2cccc(-c3ccc(-c4nc5ccccc5[nH]4)s3)c2)C1` (configuration not stated), for which the XC50 stood at 272 nM.

Regarding `CCOc1cc2ncnc(Nc3ccc(OCc4ccccc4F)c(Cl)c3)c2cc1OCC`, the XC50 was 601 nM.

Consider `Cc1nc(-c2ccc(-c3ccc(C(=O)Nc4ccc(I)c(OCCN5CCCC5)c4)cc3)c(C)c2)no1`, for which the XC50 is 964 nM.

`CCC(C)(C)c1ccc(S(=O)(=O)Nc2ccc(Cl)c(OCCN3CCCCC3)c2)cc1` gave an XC50 of 1110 nM.

`Cc1nc2ccccc2c(=O)n1/N=C/c1ccccc1[N+](=O)[O-]` gave an XC50 of 221 nM.

With `O=C(c1ccc(-c2ccccn2)s1)N1CCc2cc3nccc(N4CCN5CCC[C@H]5C4)c3cc21`, the XC50 worked out at 762 nM.
